pIC50: −log10 of the molar value.
Key:
[1] = Bioavailability in ob/ob mouse at 10 mg/kg; format: ADME, organism-based; conditions: in vivo, oral
[2] = Half life in ob/ob mouse at 5 mg/kg, iv or 10 mg/kg, po; format: ADME, organism-based; conditions: in vivo
Mus musculus [3] = test: Ex vivo inhibition of 11beta-HSD1 in ob/ob mouse liver at 30 mg/kg, po after 7 hrs; format: functional
Mus musculus [4] = test: Ex vivo inhibition of 11beta-HSD1 in ob/ob mouse liver at 30 mg/kg, po after 1 hr; format: functional
Mus musculus [5] = test: Ex vivo inhibition of 11beta-HSD1 in ob/ob mouse fat at 30 mg/kg, po after 7 hrs; format: functional
Mus musculus [6] = test: Ex vivo inhibition of 11beta-HSD1 in ob/ob mouse fat at 30 mg/kg, po after 1 hr; format: functional
[7] = target: T1, 11-beta-hydroxysteroid dehydrogenase type 2 (Mus musculus, UniProt P51661); test: Inhibition of mouse 11beta-HSD2 by SPA
T1 sequence (P51661 whole entry): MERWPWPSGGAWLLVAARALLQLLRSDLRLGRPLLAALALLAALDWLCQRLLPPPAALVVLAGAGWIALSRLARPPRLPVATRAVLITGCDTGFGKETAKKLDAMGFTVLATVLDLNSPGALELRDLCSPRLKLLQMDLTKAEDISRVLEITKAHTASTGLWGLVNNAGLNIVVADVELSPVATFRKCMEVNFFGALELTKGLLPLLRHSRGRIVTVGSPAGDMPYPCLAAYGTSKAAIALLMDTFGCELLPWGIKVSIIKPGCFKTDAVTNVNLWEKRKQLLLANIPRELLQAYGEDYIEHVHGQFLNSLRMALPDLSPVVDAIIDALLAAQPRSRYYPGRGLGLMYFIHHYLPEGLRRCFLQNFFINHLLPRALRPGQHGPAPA

Mus musculus [8] = test: Ex vivo inhibition of 11beta-HSD1 in ob/ob mouse fat at 30 mg/kg, po after 16 hrs; format: functional
[9] = target: 11-beta-hydroxysteroid dehydrogenase 1 (Mus musculus, UniProt P50172); test: Inhibition of mouse 11beta-HSD1 by SPA
Chain of 11-beta-hydroxysteroid dehydrogenase 1 (Mus musculus, UniProt P50172) (P50172 whole entry): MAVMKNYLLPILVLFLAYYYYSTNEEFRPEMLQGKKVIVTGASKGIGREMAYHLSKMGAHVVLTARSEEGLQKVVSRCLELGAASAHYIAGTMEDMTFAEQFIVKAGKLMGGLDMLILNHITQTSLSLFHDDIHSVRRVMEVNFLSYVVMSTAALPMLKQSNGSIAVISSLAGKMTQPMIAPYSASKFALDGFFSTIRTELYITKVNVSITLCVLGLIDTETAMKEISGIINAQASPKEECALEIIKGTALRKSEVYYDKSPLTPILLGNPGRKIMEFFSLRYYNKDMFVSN

[10] = target: T2, 11-beta-hydroxysteroid dehydrogenase 1 (Homo sapiens, UniProt P28845); test: Inhibition of human 11beta-HSD1 by SPA
T2 sequence (P28845 whole entry): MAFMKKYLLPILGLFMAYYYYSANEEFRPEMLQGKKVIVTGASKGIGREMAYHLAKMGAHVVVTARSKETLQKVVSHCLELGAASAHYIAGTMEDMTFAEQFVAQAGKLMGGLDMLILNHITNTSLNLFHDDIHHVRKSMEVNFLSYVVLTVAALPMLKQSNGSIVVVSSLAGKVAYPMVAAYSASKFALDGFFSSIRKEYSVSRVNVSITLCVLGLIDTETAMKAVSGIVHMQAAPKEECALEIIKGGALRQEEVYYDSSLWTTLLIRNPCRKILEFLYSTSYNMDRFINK

[11] = target: T3, 11-beta-hydroxysteroid dehydrogenase type 2 (Homo sapiens, UniProt P80365); test: Inhibition of human 11beta-HSD2 by SPA
T3 sequence (P80365 whole entry): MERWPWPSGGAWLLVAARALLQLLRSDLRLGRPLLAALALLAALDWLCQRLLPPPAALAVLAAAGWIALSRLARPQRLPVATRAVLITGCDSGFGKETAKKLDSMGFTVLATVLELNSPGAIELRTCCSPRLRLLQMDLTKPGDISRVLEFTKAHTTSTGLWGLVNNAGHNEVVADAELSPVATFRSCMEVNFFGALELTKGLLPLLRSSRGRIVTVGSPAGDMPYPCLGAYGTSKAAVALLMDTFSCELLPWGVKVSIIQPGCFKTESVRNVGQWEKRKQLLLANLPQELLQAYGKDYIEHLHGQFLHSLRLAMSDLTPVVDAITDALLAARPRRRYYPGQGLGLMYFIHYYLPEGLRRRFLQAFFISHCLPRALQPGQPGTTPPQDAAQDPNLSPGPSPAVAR

[12] = Metabolic stability in mouse liver microsome after 30 mins; format: ADME; conditions: liver microsomes, read-out: Stability
[13] = Plasma clearance in ob/ob mouse at 5 mg/kg, iv or 10 mg/kg, po; format: ADME, organism-based
[14] = target: T2, 11-beta-hydroxysteroid dehydrogenase 1; test: Inhibition of human 11beta-HSD1 expressed in HEK293 cells by FPIA; format: cell-based
Mus musculus [15] = test: Ex vivo inhibition of 11beta-HSD1 in ob/ob mouse liver at 30 mg/kg, po after 16 hrs; format: functional
Mus musculus [16] = test: Ex vivo inhibition of 11beta-HSD1 in ob/ob mouse brain at 30 mg/kg, po after 16 hrs; format: functional
Mus musculus [17] = test: Ex vivo inhibition of 11beta-HSD1 in ob/ob mouse brain at 30 mg/kg, po after 1 hr; format: functional
Mus musculus [18] = test: Ex vivo inhibition of 11beta-HSD1 in ob/ob mouse brain at 30 mg/kg, po after 7 hrs; format: functional

Question: For CC(C)(Oc1ccccc1Cl)C(=O)N[C@H]1C2CC3CC1C[C@](C(=O)O)(C3)C2, which bioavailability [1] is on record?
Answer: 100%

Question: And the half-life [2]?
Answer: 3.9 h

Question: And the inhibition in vivo at 30 mg/kg (Mus musculus [3])?
Answer: 76%

Question: What about the inhibition in vivo at 30 mg/kg (Mus musculus [4]) of the same compound?
Answer: 81%

Question: What about the inhibition in vivo at 30 mg/kg (Mus musculus [5]) of the same compound?
Answer: 47%

Question: And the inhibition in vivo at 30 mg/kg (Mus musculus [6])?
Answer: 67%

Question: And the pIC50 [7]?
Answer: 6.85

Question: And the inhibition in vivo at 30 mg/kg (Mus musculus [8])?
Answer: 6%

Question: And the pIC50 [9]?
Answer: 8.10

Question: And the pIC50 [10]?
Answer: 8.10

Question: What about the pIC50 [11] of the same compound?
Answer: 5.74

Question: And the remaining at 0.5 h [12]?
Answer: 94%

Question: And the clearance [13]?
Answer: 15 mL/min/kg

Question: What about the pIC50 [14] of the same compound?
Answer: 7.23

Question: And the inhibition in vivo at 30 mg/kg (Mus musculus [15])?
Answer: 35%

Question: Which remaining at 0.5 h [12] does the source give for CC(C)(Oc1ccc(Cl)cc1)C(=O)N[C@H]1C2CC3CC1C[C@](C(=O)NCc1ccc(C(=O)NS(C)(=O)=O)cc1)(C3)C2 here?
Answer: 51%

Question: With CC(C)(Oc1cccc(Cl)c1)C(=O)N[C@H]1C2CC3CC1C[C@](C(=O)O)(C3)C2 as the compound, how does the pIC50 [7] read?
Answer: 6.27

Question: What about the pIC50 [9] of the same compound?
Answer: 7.29

Question: What about the pIC50 [10] of the same compound?
Answer: 7.82

Question: And the pIC50 [11]?
Answer: 5.46

Question: What about the remaining at 0.5 h [12] of the same compound?
Answer: 100%

Question: What about the pIC50 [14] of the same compound?
Answer: 6.72

Question: With CC(C)(Oc1ccc(F)cc1Cl)C(=O)N[C@H]1C2CC3CC1C[C@](c1nnn[nH]1)(C3)C2 as the compound, how does the pIC50 [9] read?
Answer: 8.00

Question: What about the remaining at 0.5 h [12] of the same compound?
Answer: 87%

Question: Which bioavailability [1] does the source give for CC(C)(Oc1ccc(Cl)cc1)C(=O)N[C@H]1C2CC3CC1C[C@](C(N)=O)(C3)C2 here?
Answer: 20%

Question: And the half-life [2]?
Answer: 0.3 h

Question: And the pIC50 [9]?
Answer: 8.52

Question: And the remaining at 0.5 h [12]?
Answer: 43%

Question: And the clearance [13]?
Answer: 70 mL/min/kg

Question: Which results are given for CC(C)(Oc1ccccc1Cl)C(=O)N[C@H]1C2CC3CC1C[C@](C(=O)NS(=O)(=O)c1ccccc1)(C3)C2?
Answer: pIC50 [9]: 6.00; pIC50 [10]: 6.30

Question: With CC(C)(Oc1ccc(Cl)cc1)C(=O)N[C@H]1C2CC3CC1C[C@](C(=O)O)(C3)C2 as the compound, how does the pIC50 [9] read?
Answer: 7.15

Question: And the remaining at 0.5 h [12]?
Answer: 89%

Question: With CC(C)(Oc1ccccc1)C(=O)N[C@H]1C2CC3CC1C[C@](C(N)=O)(C3)C2 as the compound, how does the pIC50 [9] read?
Answer: 8.40

Question: What about the remaining at 0.5 h [12] of the same compound?
Answer: 78%

Question: What does the source list for CC(C)(Oc1ccc(Cl)cc1)C(=O)N[C@H]1C2CC3CC1C[C@](C(=O)NCc1ccc(S(N)(=O)=O)cc1)(C3)C2?
Answer: bioavailability [1]: 44%; half-life [2]: 3.8 h; inhibition in vivo at 30 mg/kg (Mus musculus [3]): 55%; inhibition in vivo at 30 mg/kg (Mus musculus [4]): 45%; inhibition in vivo at 30 mg/kg (Mus musculus [16]): 18%; inhibition in vivo at 30 mg/kg (Mus musculus [17]): 0%; inhibition in vivo at 30 mg/kg (Mus musculus [5]): 18%; inhibition in vivo at 30 mg/kg (Mus musculus [6]): 15%; pIC50 [7]: 4.80; inhibition in vivo at 30 mg/kg (Mus musculus [8]): 5%; pIC50 [9]: 7.62; pIC50 [10]: 7.29; pIC50 [11]: < 4.52; remaining at 0.5 h [12]: 35%; clearance [13]: 15 mL/min/kg; inhibition in vivo at 30 mg/kg (Mus musculus [18]): 0%; pIC50 [14]: 6.52; inhibition in vivo at 30 mg/kg (Mus musculus [15]): 58%

Question: With CC(C)(Oc1ccccc1Cl)C(=O)N[C@H]1C2CC3CC1C[C@](C(=O)NS(C)(=O)=O)(C3)C2 as the compound, how does the pIC50 [7] read?
Answer: 5.92

Question: And the pIC50 [9]?
Answer: 7.55

Question: And the pIC50 [10]?
Answer: 7.02

Question: And the pIC50 [11]?
Answer: 6.24

Question: And the remaining at 0.5 h [12]?
Answer: 94%

Question: What about the pIC50 [14] of the same compound?
Answer: 6.13

Question: With CC(C)(Oc1ccc(Cl)cc1)C(=O)N[C@H]1C2CC3CC1C[C@](CO)(C3)C2 as the compound, how does the pIC50 [9] read?
Answer: 8.22

Question: What about the remaining at 0.5 h [12] of the same compound?
Answer: 19%

Question: Which results are given for CC(C)(Oc1ccc(Cl)cc1)C(=O)N[C@H]1C2CC3CC1C[C@](COCC(=O)O)(C3)C2?
Answer: pIC50 [7]: 4.35; pIC50 [9]: 6.68; pIC50 [10]: 6.96; pIC50 [11]: < 4.00; remaining at 0.5 h [12]: 100%; pIC50 [14]: 6.17

Question: With CNC(=O)NC(=O)[C@]12CC3CC(C1)[C@@H](NC(=O)C(C)(C)Oc1ccc(Cl)cc1)C(C3)C2 as the compound, how does the pIC50 [9] read?
Answer: 8.10

Question: With CC(C)(Oc1ccc(Cl)cc1)C(=O)N[C@H]1C2CC3CC1C[C@](C(=O)NCC(N)=O)(C3)C2 as the compound, how does the pIC50 [9] read?
Answer: 8.40

Question: And the remaining at 0.5 h [12]?
Answer: 78%

Question: What does the source list for CC(C)(Oc1ccccc1)C(=O)N[C@H]1C2CC3CC1C[C@](C(=O)O)(C3)C2?
Answer: pIC50 [9]: 6.92; remaining at 0.5 h [12]: 98%

Question: With COc1ccc(OC(C)(C)C(=O)N[C@H]2C3CC4CC2C[C@](C(N)=O)(C4)C3)cc1 as the compound, how does the pIC50 [9] read?
Answer: 8.40

Question: And the remaining at 0.5 h [12]?
Answer: 57%

Question: What does the source list for CC(C)(Oc1ccc(Cl)cc1)C(=O)N[C@H]1C2CC3CC1C[C@](C(=O)NCc1ccc(-c4nnn[nH]4)cc1)(C3)C2?
Answer: pIC50 [9]: 7.74; remaining at 0.5 h [12]: 51%

Question: Which results are given for CC(C)(Oc1ccc(Cl)cc1)C(=O)N[C@H]1C2CC3CC1C[C@](C(=O)NCc1ccncc1)(C3)C2?
Answer: pIC50 [7]: 4.72; pIC50 [9]: 7.85; pIC50 [10]: 7.60; pIC50 [11]: 5.28; remaining at 0.5 h [12]: 16%; pIC50 [14]: 7.04

Question: Which results are given for CC(C)(Oc1ccc(Cl)cc1)C(=O)N[C@H]1C2CC3CC1C[C@](C(=O)NCc1cncs1)(C3)C2?
Answer: pIC50 [9]: 7.96; remaining at 0.5 h [12]: 5%

Question: For CC(C)(Oc1ccc(Cl)cc1)C(=O)N[C@H]1C2CC3CC1C[C@](C(=O)NCc1ccc(C(=O)O)cc1)(C3)C2, which inhibition in vivo at 30 mg/kg (Mus musculus [3]) is on record?
Answer: 93%

Question: And the inhibition in vivo at 30 mg/kg (Mus musculus [4])?
Answer: 99%

Question: What about the inhibition in vivo at 30 mg/kg (Mus musculus [5]) of the same compound?
Answer: 38%

Question: And the inhibition in vivo at 30 mg/kg (Mus musculus [6])?
Answer: 37%

Question: What about the inhibition in vivo at 30 mg/kg (Mus musculus [8]) of the same compound?
Answer: 36%

Question: What about the pIC50 [9] of the same compound?
Answer: 7.92

Question: And the remaining at 0.5 h [12]?
Answer: 94%

Question: And the inhibition in vivo at 30 mg/kg (Mus musculus [15])?
Answer: 77%

— ChEMBL document CHEMBL1138420, “Discovery of adamantane ethers as inhibitors of 11beta-HSD-1: Synthesis and biological evaluation” (Bioorg Med Chem Lett, 2007)
